Results: ChEMBL document CHEMBL4433235, “Discovery of piperazic acid peptide deformylase inhibitors with in vivo activity for respiratory tract and skin infections” (Bioorg Med Chem Lett, 2019)
≈ marks a conversion by molar mass, not a printed value.

Assays:
[1] = Chromatographic hydrophobicity index, log D of compound at pH 7.4; assay type: physicochemical; details: buffer
[2] = Inhibition of Haemophilus influenzae PDF by fluorescence detection assay
Peptide deformylase [3] = molecular target: T1, Peptide deformylase (Staphylococcus aureus, UniProt P68826); assay: Inhibition of Staphylococcus aureus PDF by fluorescence detection assay
T1 sequence (P68826 whole entry): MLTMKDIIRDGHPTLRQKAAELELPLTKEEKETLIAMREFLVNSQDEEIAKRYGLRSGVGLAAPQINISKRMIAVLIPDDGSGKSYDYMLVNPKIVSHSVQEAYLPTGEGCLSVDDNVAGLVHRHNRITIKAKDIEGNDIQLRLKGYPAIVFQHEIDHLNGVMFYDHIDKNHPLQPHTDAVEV

Streptococcus pneumoniae [4] = assay: Antimicrobial activity against Streptococcus pneumoniae; assay type: functional
Staphylococcus aureus [5] = assay: Antimicrobial activity against Staphylococcus aureus Oxford; assay type: functional
[6] = Solubility of compound by chemiluminescent nitrogen detection assay; assay type: physicochemical
Haemophilus influenzae [7] = assay: Antimicrobial activity against Haemophilus influenzae; assay type: functional
Staphylococcus aureus [8] = assay: Antimicrobial activity against Staphylococcus aureus; assay type: functional
[9] = Inhibition of Streptococcus pneumoniae PDF by fluorescence detection assay
Haemophilus influenzae [10] = assay: Antimicrobial activity against Haemophilus influenzae Q1; assay type: functional
Streptococcus pneumoniae [11] = assay: Antimicrobial activity against Streptococcus pneumoniae 1629; assay type: functional
Streptococcus pneumoniae [12] = assay: Antimicrobial activity against Streptococcus pneumoniae Ery-2 in presence of clavulanic acid; assay type: functional
Streptococcus pneumoniae [13] = assay: Antimicrobial activity against Streptococcus pneumoniae Ery-2 infected in respiratory tract infection rat model assessed as log reduction in bacterial CFU at 350 mg/kg, po BID dosed 1 hr post infection and measured for 96 hrs in presence of 50 mg/kg clavulanic acid; assay type: functional
[14] = AUC in rat at 3.9 mg/kg, iv; assay type: ADME, organism-based; details: in vivo
[15] = AUC in rat at 8.5 mg/kg, po; assay type: ADME, organism-based; details: in vivo
[16] = Inhibition of Haemophilus influenzae PDF by absorbance detection assay
[17] = Cmax in rat at 8.5 mg/kg, po; assay type: ADME, organism-based; parameters: dose 8.5 mg/kg, route oral; details: in vivo
[18] = Volume of distribution at steady state in rat at 3.9 mg/kg, iv; assay type: ADME, organism-based; details: in vivo, read-out: Vdss
[19] = Half life in rat at 3.9 mg/kg, iv; assay type: ADME, organism-based; details: in vivo
[20] = Oral bioavailability in rat at 8.5 mg/kg; assay type: ADME, organism-based; details: in vivo
[21] = Clearance in rat at 3.9 mg/kg, iv; assay type: ADME, organism-based; details: in vivo
Peptide deformylase [22] = molecular target: T1, Peptide deformylase; assay: Inhibition of Staphylococcus aureus PDF by absorbance detection assay
[23] = Inhibition of Streptococcus pneumoniae PDF by absorbance detection assay
[24] = Clearance in rat at 3 mg/kg, iv; assay type: ADME, organism-based; details: in vivo
[25] = Cmax in rat at 5 mg/kg, po; assay type: ADME, organism-based; parameters: dose 5 mg/kg, route oral; details: in vivo
[26] = Volume of distribution at steady state in rat at 3 mg/kg, iv; assay type: ADME, organism-based; details: in vivo, read-out: Vdss
[27] = AUC in rat at 3 mg/kg, iv; assay type: ADME, organism-based; details: in vivo
[28] = Oral bioavailability in rat at 5 mg/kg; assay type: ADME, organism-based; details: in vivo
[29] = AUC in rat at 5 mg/kg, po; assay type: ADME, organism-based; details: in vivo
[30] = Half life in rat at 3 mg/kg, iv; assay type: ADME, organism-based; details: in vivo
[31] = Half life in rat at 5 mg/kg, po; assay type: ADME, organism-based; details: in vivo

| CHI [1] | IC50 [2] [nM] | IC50 (Peptide deformylase [3]) [nM] | MIC90 (Streptococcus pneumoniae [4]) [µg/mL] | MIC (Staphylococcus aureus [5]) [µg/mL] | solubility kinetic [6] [µM] | MIC90 (Haemophilus influenzae [7]) [µg/mL] | MIC90 (Staphylococcus aureus [8]) [µg/mL] | IC50 [9] [nM] | MIC (Haemophilus influenzae [10]) [µg/mL] | MIC (Streptococcus pneumoniae [11]) [µg/mL] | IC50 (Peptide deformylase [22]) [nM] | IC50 [23] [nM] | Compound | other results |
| --- | --- | --- | --- | --- | --- | --- | --- | --- | --- | --- | --- | --- | --- | --- |
| 4.05 | 40 | 2 | 1 (≈ 2.4 µM) | 1 (≈ 2.4 µM) | > 565 | 4 (≈ 9.58 µM) | 1 (≈ 2.4 µM) | 0.4 | 2 (≈ 4.79 µM) | 2 (≈ 4.79 µM) |  |  | Cc1ccnc(NC(=O)[C@@H]2CCCNN2C(=O)[C@H](CC2CCCC2)CN(O)C=O)c1 |  |
| 4.13 |  |  | 2 (≈ 4.75 µM) | 0.5 (≈ 1.19 µM) | > 739 | 2 (≈ 4.75 µM) | 1 (≈ 2.37 µM) |  | 0.5 (≈ 1.19 µM) | 1 (≈ 2.37 µM) | 2 | 0.6 | O=CN(O)C[C@@H](CC1CCCC1)C(=O)N1NCCC[C@H]1C(=O)Nc1ccc(F)cn1 |  |
| 4.88 | 32 | 20 |  | 4 (≈ 8.96 µM) | > 364 |  |  | 8 | 4 (≈ 8.96 µM) | 0.5 (≈ 1.12 µM) |  |  | CN(C)c1cccc(NC(=O)[C@@H]2CCCNN2C(=O)[C@H](CC2CCCC2)CN(O)C=O)n1 |  |
| 3.65 | 16 | 5 |  | 1 (≈ 2.23 µM) | > 515 |  |  | 0.79 | 1 (≈ 2.23 µM) | 1 (≈ 2.23 µM) |  |  | CN(C)c1cncc(NC(=O)[C@@H]2CCCNN2C(=O)[C@H](CC2CCCC2)CN(O)C=O)n1 | clearance [24]: 73 mL/min/kg; Cmax [25]: 53 ng/mL; Vd [26]: 13 L/kg; AUC [27]: 685 ng·h/mL; bioavailability [28]: 15%; AUC [29]: 169 ng·h/mL; half-life [30]: 7 h; half-life [31]: 10 h |

The remaining lines, values behind:

| Compound | CHI [1] | IC50 [2] [nM] | IC50 (Peptide deformylase [3]) [nM] | MIC90 (Streptococcus pneumoniae [4]) [µg/mL] | MIC (Staphylococcus aureus [5]) [µg/mL] | solubility kinetic [6] [µM] | MIC90 (Haemophilus influenzae [7]) [µg/mL] | MIC90 (Staphylococcus aureus [8]) [µg/mL] | IC50 [9] [nM] | MIC (Haemophilus influenzae [10]) [µg/mL] | MIC (Streptococcus pneumoniae [11]) [µg/mL] | IC50 (Peptide deformylase [22]) [nM] | IC50 [23] [nM] | other results |
| --- | --- | --- | --- | --- | --- | --- | --- | --- | --- | --- | --- | --- | --- | --- |
| Cc1cccnc1NC(=O)[C@@H]1CCCNN1C(=O)[C@H](CC1CCCC1)CN(O)C=O | 2.94 | 79 | 16 |  | 8 (≈ 19.2 µM) | 483 (≈ 202 µg/mL) |  |  | 10 | 2 (≈ 4.79 µM) | 8 (≈ 19.2 µM) |  |  |  |
| CC1(C)S[C@@H]2[C@H](NC(=O)[C@H](N)c3ccc(O)cc3)C(=O)N2[C@H]1C(=O)O [AMOXICILLIN] |  |  |  |  |  |  |  |  |  |  |  |  |  | MIC (Streptococcus pneumoniae [12]): 0.03 µg/mL; Activity (Streptococcus pneumoniae [13]): 5.2 log10CFU/ml |
| CN1CCN(c2cncc(NC(=O)[C@@H]3CCCNN3C(=O)[C@H](CC3CCCC3)CN(O)C=O)n2)CC1 | 2.57 |  | 10 |  | 16 (≈ 31.8 µM) | > 359 |  |  | 2 | 2 (≈ 3.98 µM) | 4 (≈ 7.96 µM) |  |  |  |
| Cc1nc(NNC(=O)[C@H](CC2CCCC2)CN(O)C=O)c(F)c(N2CCN3CCOC[C@@H]3C2)n1 [LANOPEPDEN] | 2.54 |  |  | 1 (≈ 2.09 µM) | 2 (≈ 4.17 µM) | 241 (≈ 116 µg/mL) | 2 (≈ 4.17 µM) | 4 (≈ 8.34 µM) |  | 0.5 (≈ 1.04 µM) | 1 (≈ 2.09 µM) | 12 | 3 | AUC [14]: 720 ng·h/mL; AUC [15]: 1450 ng·h/mL; IC50 [16]: 3 nM; Cmax [17]: 902 ng/mL; Vd [18]: 2.5 L/kg; half-life [19]: 0.7 h; bioavailability [20]: 91%; clearance [21]: 88 mL/min/kg |
| CN(C(=O)[C@@H]1CCCNN1C(=O)[C@H](CC1CCCC1)CN(O)C=O)c1ccccn1 | 3.3 |  |  |  | 4 (≈ 9.58 µM) | > 657 |  |  |  | 4 (≈ 9.58 µM) | 2 (≈ 4.79 µM) | 18 | 8 | IC50 [16]: 15 nM |
| O=CN(O)C[C@@H](CC1CCCC1)C(=O)N1NCCC[C@H]1C(=O)Nc1ccccc1 | 4.82 |  |  |  | 4 (≈ 9.94 µM) | > 534 |  |  |  | 1 (≈ 2.48 µM) | 2 (≈ 4.97 µM) | 5 | 1 | IC50 [16]: 2 nM |
| CN1CCN(c2cc(NC(=O)[C@@H]3CCCNN3C(=O)[C@H](CC3CCCC3)CN(O)C=O)ncn2)CC1 | 2.7 | 25 | 3 | 0.25 (≈ 0.497 µM) | 0.5 (≈ 0.995 µM) | > 573 | 2 (≈ 3.98 µM) | 0.5 (≈ 0.995 µM) | 1 | 2 (≈ 3.98 µM) | 0.25 (≈ 0.497 µM) |  |  |  |
